The target in the test is T1, human plasma renin (Homo sapiens, UniProt P00797).
T1 construct: from tissue; host or cells: human plasma
T1 sequence (P00797 67-406): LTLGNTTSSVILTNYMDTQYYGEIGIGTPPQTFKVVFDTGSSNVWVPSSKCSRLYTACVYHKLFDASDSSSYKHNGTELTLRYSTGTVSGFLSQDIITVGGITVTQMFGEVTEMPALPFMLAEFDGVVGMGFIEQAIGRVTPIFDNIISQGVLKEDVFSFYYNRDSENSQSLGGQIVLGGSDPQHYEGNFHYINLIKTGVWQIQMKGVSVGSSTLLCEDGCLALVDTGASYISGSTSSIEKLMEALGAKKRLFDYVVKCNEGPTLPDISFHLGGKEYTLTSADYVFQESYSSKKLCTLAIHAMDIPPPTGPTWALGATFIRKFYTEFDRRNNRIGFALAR
The test can be described thus: Inhibition of human plasma renin, in vitro method of Boger et al. Format: biochemical. Particulars: J. Med. Chem. (1985) 28, 1779, read-out: IC₅₀. The procedure:
Inhibition of human plasma renin was assayed using the in vitro method described by Boger, et. al., J. Med. Chem. (1985) 28, 1779. IC₅₀-1.3 nM.

In the case of `CCC[C@H]1COC[C@@H]2C[C@@H]([C@H](O)[C@H](CC3CCCCC3)NC(=O)[C@H](Cc3cnc[nH]3)NC(=O)[C@H](Cc3ccccc3)NC(=O)OC(C)(C)C)C(=O)N21` [Example 3E, Boc-Phe-His-(ACHP)-5(S)-Propyl-7-Oxa-9(S)-Indolizidin-3-One-2(S)-yl], the IC50 is 1 nM. As for `CC(C)(C)OC(=O)N[C@@H](Cc1ccccc1)C(=O)N[C@@H](Cc1cnc[nH]1)C(=O)N[C@@H](CC1CCCCC1)[C@@H](O)[C@@H]1C[C@H]2COC[C@H](C3CCCC3)N2C1=O` [Example 3D, Boc-Phe-His-(ACHP)-5(S)-Cyclopentyl-7-Oxa-9(S)-Indolizidin-3-One-2(S)-yl], the IC50 worked out at 1 nM.

In the case of `C=CC[C@H]1COC[C@@H]2C[C@@H]([C@H](O)[C@H](CC3CCCCC3)NC(=O)[C@H](Cc3c[nH]cn3)NC(=O)[C@H](Cc3ccccc3)NC(=O)OC(C)(C)C)C(=O)N21` [Example 3A, Boc-Phe-His-(ACHP)-5(S)-Allyl-7-Oxa-9(S)-Indolizidin-3-One-2(S)-yl], the IC50 was 1.3 nM. Regarding `CC(C)C[C@H]1COC[C@@H]2C[C@@H]([C@H](O)[C@H](CC3CCCCC3)NC(=O)[C@H](Cc3cnc[nH]3)NC(=O)[C@H](Cc3ccccc3)NC(=O)OC(C)(C)C)C(=O)N12` [Example 3C, Boc-Phe-His-(ACHP)-5(S)-(2-Methylpropyl)-7-Oxa-9(S)-Indolizidin-3-One-2(S)-yl], the IC50 came to 2 nM. The same measure for “Boc-Phe-His-(ACHP)-6(S)-Methyl-9(S)-Indolizidin-3-One-2(S)-yl [Example 3XX]”: 6.8 nM; for `C=C(C)C[C@H]1COC[C@@H]2C[C@@H]([C@H](O)[C@H](CC3CCCCC3)NC(=O)[C@H](Cc3cnc[nH]3)NC(=O)[C@H](Cc3ccccc3)NC(=O)OC(C)(C)C)C(=O)N12` [Example 3B, Boc-Phe-His-(ACHP)-5(S)-(2-Methallyl)-7-Oxa-9(S)-Indolizidin-3-One-2(S)-yl]: 0.97 nM.

Source of the values: EP0438311A2, “Di- and tripeptide renin inhibitors” (MERCK & CO. INC., priority 1990, dated 1991).
